Where a name gives a salt, the structure may show the parent alone.

Holding throughout (assay type): physicochemical
Data set [1] can be described thus: Approximate solubility screen of Compound I in different solvents. The note with it: for solubility: organic solvent or mixture, thermodynamic from solid. As for the experimental part:
A solubility screen of Compound I was evaluated in 20 different solvents chosen as MeCN, dioxane, acetone, MtBE, EtOH, EtOAc, IPAc, IPA, THF, 2-MeTHF, MEK, DMF, AcOH, MeOH, cyclohexane, heptane, DCM, toluene, NMP, and DMAc, to select appropriate primary and binary solvents for the polymorph screen. One to four mg of the Compound I was charged to 2-dram clear vials equipped with magnetic stir bars and solvent was added in 250-μL portions with heating to 55° C. until complete dissolution was observed or a maximum of 6 mL was added. […] Solvents and other reagents were of ACS or HPLC grade and were used as received.

A short description of data set [2]: Slurry experiments (form by XRPD after slurrying in a solvent). Conditions: 2.0 mL. As for the experimental part: 50 to 60 mg of Form A of Compound I was weighed out into 2 dram amber vials and the material was slurried in 2 mL of a solvent. The slurry experiments were carried out at either ambient temperature or at 40° C. Samples were obtained from slurries after one day, one week, and two weeks. Tables 15 and 16 detail the results of the slurry experiments.

The nature of data set [3]: Solubility study of Form A in de-ionized water and 20 mM phosphate buffer at pH 3.2 (HPLC, XRPD of solids). Conditions: for solubility: thermodynamic from solid. As for the experimental part: Solubility was determined for Form A of Compound I by suspending the material in de-ionized water and 20 mM phosphate buffer at pH 3.2 and ambient temperature. Approximately 40 mg of Form A of Compound I was charged to 2-dram amber vials equipped with magnetic stir bars, followed by the addition of DI water or phosphate buffer (2.0 mL) in one portion. The samples were allowed to equilibrate with stirring for 16 h, followed by centrifugation. An aliquot of the supernatant liquid was analyzed by HPLC, and the solids isolated by filtration and dried under vacuum at ambient temperature for analysis by XRPD. Samples were allowed to stir for an additional 6 days and concentration determined by HPLC.

Data set [4] is described as follows: Physical characterization of the polymorphs and salt (XRPD, DSC, TGA, 1H-NMR, KF, moisture sorption): stability assessment. Conditions: solid form. As for the experimental part:
Described herein are Form A, Form B, Form C, Form D, Form E, Form F and Form G of Compound I. Various tests were performed in order to physically characterize the polymorphs of Compound I, including X-ray powder diffraction (XRPD), differential scanning calorimetry (DSC), thermogravimetric analysis (TGA), solution proton nuclear magnetic resonance (^1H-NMR), and moisture sorption and desorption analysis (M S/Des). Detailed experimental conditions for each of the analytical techniques are described in the Examples section. […] A summary of these experiments and the results are presented below and in Table 12.

A short description of data set [5]: Moisture-sorption analysis (gravimetric adsorption/desorption, 25° C.). As for the experimental part:
Further, the material gained enough water to form the dihydrate in approximately 45 minutes at 30% RH during adsorption and lost enough water to form the anhydrate at 15% RH during desorption in less than 60 minutes. […] The sample was further allowed to equilibrate at ambient laboratory conditions overnight and reanalyzed by XRPD. […] The moisture sorption experiment of Form C of Compound I provides a curve similar to the Form A curve (FIG. 11). […] Further, the material gained enough water to form the dihydrate in less than 60 minutes at 30% RH during adsorption and lost enough water to form the anhydrate at 15% RH during desorption in approximately 80 minutes. […] Moisture-sorption experiments were carried out on all samples by first drying the sample at 0% RH and 25° C. until an equilibrium weight was reached or for a maximum of four hours. The sample was then subjected to an isothermal (25° C.) adsorption scan from 10 to 90% RH in steps of 10%. Samples were then allowed to equilibrate to an asymptotic weight at each point for a maximum of four hours. Following adsorption, a desorption scan from 85 to 0% RH (at 25° C.) was run in steps of −10% again allowing a maximum of four hours for equilibration to an asymptotic weight. Samples were dried for one hour at 80° C. and the resulting solids analyzed by XRPD.

[6] abbreviates: Form A slurried in water, 40 ° C.
[7] abbreviates: Form A slurried in water, Ambient.

In the case of `CCS(=O)(=O)c1cccc(-c2cc(C(=O)NC3CCN(C)CC3)c(C)c3[nH]c4ncc(C)cc4c23)c1` [Compound I, 5-(3-(ethylsulfonyl)phenyl)-3,8-dimethyl-N-(1-methylpiperidin-4-yl)-9H-pyrido[2,3-b]indole-7-carboxamide], the Soluble entry was “No” in data set [1] (2-Me—THF, 1.6 mg, 5.75 mL, heating to 55° C.); “Yes” in data set [1] (AcOH, 2.1 mg in 0.75 mL, Temp RT); “No” in data set [1] (DCM, 2.6 mg, 4.50 mL, heating to 55° C.); “Yes” in data set [1] (DMA, 2.8 mg in 0.50 mL, Temp 55); “Yes” in data set [1] (DMF, 1.8 mg in 0.50 mL, Temp RT); “No” in data set [1] (EtOAc, 2.2 mg, 5.75 mL, heating to 55° C.). For the same compound, the Soluble result is “Yes” in data set [1] (EtOH, 1.6 mg in 4.75 mL, Temp 55); “No” in data set [1] (Heptane, 1.9 mg, 3.50 mL, heating to 55° C.); “No” in data set [1] (IPAC, 2.6 mg, 5.75 mL, heating to 55° C.); “No” in data set [1] (MTBE, 1.3 mg, 5.75 mL, heating to 55° C.); “Yes” in data set [1] (MeCN, 1.7 mg in 5.75 mL, Temp 55); “Yes” in data set [1] (MeOH, 1.7 mg in 2.00 mL, Temp 55). Moreover, the Soluble entry in data set [1] (NMP, 2.4 mg in 0.50 mL, Temp 55) is given as “Yes”; in data set [1] (THF, 1.3 mg in 3.75 mL, Temp 55) it was “Yes”; in data set [1] (Toluene, 1.8 mg, 3.50 mL, heating to 55° C.), “No”; in data set [1] (c-Hexane (cyclohexane), 1.8 mg, 3.50 mL, heating to 55° C.), “No”. The “Conc.” value in data set [1] (AcOH, Temp RT, 2.1 mg in 0.75 mL) was 2800 µg/mL; in data set [1] (DMA, Temp 55, 2.8 mg in 0.50 mL), 5600 µg/mL; in data set [1] (DMF, Temp RT, 1.8 mg in 0.50 mL), >3600 µg/mL; in data set [1] (EtOH, Temp 55, 1.6 mg in 4.75 mL) it was 340 µg/mL; in data set [1] (MeCN, Temp 55, 1.7 mg in 5.75 mL), 300 µg/mL; in data set [1] (MeOH, Temp 55, 1.7 mg in 2.00 mL), 850 µg/mL. Moreover, the “Conc.” value in data set [1] (NMP, Temp 55, 2.4 mg in 0.50 mL) was determined as 4800 µg/mL; in data set [1] (THF, Temp 55, 1.3 mg in 3.75 mL), 350 µg/mL. Also, the “solubility (in words)” value in data set [1] (in MeCN, MTBe, EtOAc, IPAc, IPA, THF, MEK, heptane and water) was “Poor solubility”; in data set [1] (in MeOH, DMF, DMA, NMP, CHCl3, AcOH and EtOH) it was “Good solubility”; in data set [1] (in polar solvents including MeCN, EtOH, THF, DMF, AcOH, MeOH, NMP, and DMAc), “appreciable solubility”. Besides, the solubility in data set [1] (Acetone, 1.8 mg, 5.75 mL, heating to 55° C.) was < 330 µg/mL; in data set [1] (Dioxane, 1.7 mg, 5.75 mL, heating to 55° C.), < 330 µg/mL; in data set [1] (IPA, 1.2 mg, 5.75 mL, heating to 55° C.) it was < 330 µg/mL; in data set [1] (MEK, 1.9 mg, 5.75 mL, heating to 55° C.), < 330 µg/mL; in data set [3] (aqueous buffer, 20 mM phosphate buffer at pH 3.2), < 100 µg/mL; in data set [3] (de-ionized water, water), < 100 µg/mL. Further, the “XRPD Results Day 1*” value in data set [2] (Form A slurried in Acetone, Ambient) is recorded as “amorphous”; in data set [2] (Form A slurried in MEK, Ambient), “amorphous”; in data set [2] (Form A slurried in THF, Ambient), “amorphous”; in data set [2] (setting [6]) it was “amorphous”; in data set [2] (setting [7]), “amorphous”. Moreover, the “XRPD Results Week 1*” value in data set [2] (setting [6]) and in data set [2] (setting [7]) was “amorphous” in each case.

`CCS(=O)(=O)c1cccc(-c2cc(C(=O)NC3CCN(C)CC3)c(C)c3[nH]c4ncc(C)cc4c23)c1` [Form B, 5-(3-(ethylsulfonyl)phenyl)-3,8-dimethyl-N-(1-methylpiperidin-4-yl)-9H-pyrido[2,3-b]indole-7-carboxamide]: in data set [4], the “stability (based on the available characterization data)” value (“stability” below) is reported as “stable under ambient non-aqueous conditions”.

With `CCS(=O)(=O)c1cccc(-c2cc(C(=O)NC3CCN(C)CC3)c(C)c3[nH]c4ncc(C)cc4c23)c1` [Form C, 5-(3-(ethylsulfonyl)phenyl)-3,8-dimethyl-N-(1-methylpiperidin-4-yl)-9H-pyrido[2,3-b]indole-7-carboxamide], in data set [5] (at 15% RH during desorption), the “time to lose enough water to form the anhydrate” value is “approximately 80 minutes”. Also, the “time to gain enough water to form the dihydrate” value in data set [5] (at 30% RH during adsorption) is recorded as “less than 60 minutes”. For the same compound, in data set [5] (during both adsorption and desorption, 25° C.), the “hydration state in the moisture sorption experiment” value is “convert to a stable dihydrate above 20% RH”. In data set [4], the “stability” value is reported as “stable under ambient low humidity conditions”. Further, the “form conversion in aqueous media” value in data set [3] (during the solubility determination) is “converted to Form A”.

Turning to `CCS(=O)(=O)c1cccc(-c2cc(C(=O)NC3CCN(C)CC3)c(C)c3[nH]c4ncc(C)cc4c23)c1` [Form D, 5-(3-(ethylsulfonyl)phenyl)-3,8-dimethyl-N-(1-methylpiperidin-4-yl)-9H-pyrido[2,3-b]indole-7-carboxamide], in data set [4], the “stability” value is recorded as “stable under ambient non-aqueous conditions”.

On to `CCS(=O)(=O)c1cccc(-c2cc(C(=O)NC3CCN(C)CC3)c(C)c3[nH]c4ncc(C)cc4c23)c1` [Form E, 5-(3-(ethylsulfonyl)phenyl)-3,8-dimethyl-N-(1-methylpiperidin-4-yl)-9H-pyrido[2,3-b]indole-7-carboxamide], for which the “stability” value in data set [4] was “stable under ambient non-aqueous conditions”.

Turning to `CCS(=O)(=O)c1cccc(-c2cc(C(=O)NC3CCN(C)CC3)c(C)c3[nH]c4ncc(C)cc4c23)c1` [HPF6 salt of Compound I], the “stability” value in data set [4] was “stable under ambient conditions”.

The term solubility denotes the concentration that dissolves in the medium under given conditions.

Values taken from patent US20110184178A1, “POLYMORPHS OF 5-(3-(ETHYLSULFONYL)PHENYL)-3,8-DIMETHYL-N-(1-METHYLPIPERIDIN-4-YL)-9H-PYRIDO[2,3-B]INDOLE-7-CARBOXAMIDE AND METHODS OF USE THEREFOR” (Takeda Pharmaceutical Company Limited, priority 2008, published 2011).
